Source: patent US20220402948A1, “EGFR INHIBITOR, COMPOSITION AND PREPARATION METHOD THEREFOR” (BETTA PHARMACEUTICALS CO., LTD., priority 2019, published 2022)
Where two headings read alike, the source gives them in different places.

Experiments:
[1] = target: Ba/F3-EGFR wild-type cell line (Homo sapiens, UniProt P00533); assay: Ba/F3-EGFR wild-type cell proliferation assay (CellTiter Glo, 72 hours); format: cell-based; conditions: Table 2, read-out: EGFR WT IC50
Procedure, shortened: (§1)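 Ba/F3 cells stably overexpressing wild-type EGFR or EGFR Δ19del/T790M/C797S were seeded at 2000 cells/well and incubated 72 h with compound. Viability was read by CellTiter-Glo luminescence, and IC50 came from a four-parameter logistic fit of signal against log concentration.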

EGFRΔ19del/T790M/C797S = EGFRΔ19del/T790M/C797S (Homo sapiens, UniProt P00533, T790M/C797S, form not given); assay: EGFR Δ19del/T790M/C797S kinase test (mobility variation analysis, Caliper EZ Reader); format: biochemical; conditions: kinase enzymatic activity, Table 1
Sequence of EGFRΔ19del/T790M/C797S (P00533 with tags, fused parts or gaps DEL746-750/T790M/C797S, form open): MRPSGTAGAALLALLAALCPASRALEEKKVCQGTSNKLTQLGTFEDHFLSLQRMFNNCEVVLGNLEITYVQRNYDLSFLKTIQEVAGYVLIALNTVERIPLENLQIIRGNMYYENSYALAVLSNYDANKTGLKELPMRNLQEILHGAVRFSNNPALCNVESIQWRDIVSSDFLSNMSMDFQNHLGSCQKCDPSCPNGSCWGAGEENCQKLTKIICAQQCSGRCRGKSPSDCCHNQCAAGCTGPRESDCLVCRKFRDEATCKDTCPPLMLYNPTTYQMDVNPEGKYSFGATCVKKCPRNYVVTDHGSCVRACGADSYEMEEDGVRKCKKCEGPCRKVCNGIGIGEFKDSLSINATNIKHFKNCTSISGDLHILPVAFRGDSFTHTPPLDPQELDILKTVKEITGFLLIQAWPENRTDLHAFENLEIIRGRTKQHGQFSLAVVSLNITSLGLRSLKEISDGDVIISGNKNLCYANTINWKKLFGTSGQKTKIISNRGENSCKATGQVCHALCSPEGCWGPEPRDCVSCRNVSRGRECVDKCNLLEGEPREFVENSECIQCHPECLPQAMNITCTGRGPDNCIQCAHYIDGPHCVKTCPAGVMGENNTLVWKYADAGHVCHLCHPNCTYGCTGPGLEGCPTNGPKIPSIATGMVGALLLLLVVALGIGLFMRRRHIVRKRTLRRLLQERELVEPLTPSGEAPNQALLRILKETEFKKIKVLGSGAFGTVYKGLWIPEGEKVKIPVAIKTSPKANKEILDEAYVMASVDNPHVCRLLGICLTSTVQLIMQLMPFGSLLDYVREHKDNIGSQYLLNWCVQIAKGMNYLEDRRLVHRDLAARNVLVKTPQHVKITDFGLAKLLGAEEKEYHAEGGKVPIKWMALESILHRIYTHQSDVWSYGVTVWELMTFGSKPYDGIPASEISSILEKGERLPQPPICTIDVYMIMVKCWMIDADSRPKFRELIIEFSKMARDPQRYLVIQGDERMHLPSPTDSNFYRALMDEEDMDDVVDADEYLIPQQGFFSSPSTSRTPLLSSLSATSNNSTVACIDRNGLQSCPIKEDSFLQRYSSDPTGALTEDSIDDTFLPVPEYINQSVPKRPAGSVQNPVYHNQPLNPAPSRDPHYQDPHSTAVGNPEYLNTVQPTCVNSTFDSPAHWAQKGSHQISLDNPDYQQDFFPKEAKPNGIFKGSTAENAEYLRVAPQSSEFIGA
Procedure, shortened: (§2)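 Read-out is substrate-to-product conversion by mobility shift, stopped after incubation at room temperature with ATP and substrate, following a 10-minute room-temperature compound–enzyme pre-incubation. IC50 obtained by four-parameter variable-slope fitting of inhibition normalized between enzyme-free and uninhibited controls.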

A431 = A431 cell proliferation assay (CellTiter Glo, 72 hours); format: cell-based; conditions: cell proliferation, A431, 72 hours, Table 2, read-out: A431 IC50
Procedure, shortened: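 Luminescence (CellTiter-Glo) after 72 h treatment gives viability, fitted by nonlinear regression to yield IC50. Cells seeded at 2000 per well; nine 3-fold concentrations from 1000 nM, DMSO final 0.1% (0.5% for certain compounds).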

EGFR WT = EGFR WT (Homo sapiens, UniProt P00533); assay: EGFR WT kinase test (mobility variation analysis, Caliper EZ Reader); format: biochemical; conditions: kinase enzymatic activity, Table 1
Sequence of EGFR WT (P00533 25-1210): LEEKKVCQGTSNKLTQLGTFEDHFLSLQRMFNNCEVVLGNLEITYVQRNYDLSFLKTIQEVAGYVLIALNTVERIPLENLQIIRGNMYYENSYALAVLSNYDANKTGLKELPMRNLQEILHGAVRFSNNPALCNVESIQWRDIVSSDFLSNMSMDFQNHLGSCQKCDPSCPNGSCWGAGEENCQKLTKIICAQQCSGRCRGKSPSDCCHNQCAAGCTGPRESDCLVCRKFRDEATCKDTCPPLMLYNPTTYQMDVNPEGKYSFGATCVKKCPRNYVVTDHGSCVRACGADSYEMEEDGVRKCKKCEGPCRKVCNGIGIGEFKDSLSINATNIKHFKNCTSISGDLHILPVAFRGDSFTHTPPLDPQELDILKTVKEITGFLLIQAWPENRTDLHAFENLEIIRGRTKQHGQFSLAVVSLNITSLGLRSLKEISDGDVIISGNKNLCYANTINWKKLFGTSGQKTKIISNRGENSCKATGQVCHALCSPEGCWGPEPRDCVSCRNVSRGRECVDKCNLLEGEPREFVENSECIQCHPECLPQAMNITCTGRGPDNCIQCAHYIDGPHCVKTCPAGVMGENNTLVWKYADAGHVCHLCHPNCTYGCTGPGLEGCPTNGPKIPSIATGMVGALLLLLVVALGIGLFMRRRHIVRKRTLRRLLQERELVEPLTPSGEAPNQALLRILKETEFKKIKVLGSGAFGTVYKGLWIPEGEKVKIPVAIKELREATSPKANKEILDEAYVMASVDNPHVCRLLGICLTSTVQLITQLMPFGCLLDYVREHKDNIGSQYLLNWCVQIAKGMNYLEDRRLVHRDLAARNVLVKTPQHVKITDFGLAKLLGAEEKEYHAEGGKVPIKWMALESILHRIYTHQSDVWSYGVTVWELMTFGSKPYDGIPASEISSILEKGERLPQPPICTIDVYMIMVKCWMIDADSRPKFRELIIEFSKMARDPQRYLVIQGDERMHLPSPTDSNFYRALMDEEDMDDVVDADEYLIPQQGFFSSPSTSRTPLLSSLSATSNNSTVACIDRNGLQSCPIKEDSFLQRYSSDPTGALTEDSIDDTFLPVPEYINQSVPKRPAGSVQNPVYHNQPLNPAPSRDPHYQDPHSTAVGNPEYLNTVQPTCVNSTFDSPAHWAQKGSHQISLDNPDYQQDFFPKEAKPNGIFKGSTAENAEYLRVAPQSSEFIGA
Procedure, shortened: as §2

IGF1R = IGF1R (Homo sapiens, UniProt P08069); assay: IGF1R kinase test (mobility variation analysis, Caliper EZ Reader); format: biochemical; conditions: kinase enzymatic activity, Table 1; read-out: EGFR IGF1R IC50
Sequence of IGF1R (P08069 31-1367, species assumed): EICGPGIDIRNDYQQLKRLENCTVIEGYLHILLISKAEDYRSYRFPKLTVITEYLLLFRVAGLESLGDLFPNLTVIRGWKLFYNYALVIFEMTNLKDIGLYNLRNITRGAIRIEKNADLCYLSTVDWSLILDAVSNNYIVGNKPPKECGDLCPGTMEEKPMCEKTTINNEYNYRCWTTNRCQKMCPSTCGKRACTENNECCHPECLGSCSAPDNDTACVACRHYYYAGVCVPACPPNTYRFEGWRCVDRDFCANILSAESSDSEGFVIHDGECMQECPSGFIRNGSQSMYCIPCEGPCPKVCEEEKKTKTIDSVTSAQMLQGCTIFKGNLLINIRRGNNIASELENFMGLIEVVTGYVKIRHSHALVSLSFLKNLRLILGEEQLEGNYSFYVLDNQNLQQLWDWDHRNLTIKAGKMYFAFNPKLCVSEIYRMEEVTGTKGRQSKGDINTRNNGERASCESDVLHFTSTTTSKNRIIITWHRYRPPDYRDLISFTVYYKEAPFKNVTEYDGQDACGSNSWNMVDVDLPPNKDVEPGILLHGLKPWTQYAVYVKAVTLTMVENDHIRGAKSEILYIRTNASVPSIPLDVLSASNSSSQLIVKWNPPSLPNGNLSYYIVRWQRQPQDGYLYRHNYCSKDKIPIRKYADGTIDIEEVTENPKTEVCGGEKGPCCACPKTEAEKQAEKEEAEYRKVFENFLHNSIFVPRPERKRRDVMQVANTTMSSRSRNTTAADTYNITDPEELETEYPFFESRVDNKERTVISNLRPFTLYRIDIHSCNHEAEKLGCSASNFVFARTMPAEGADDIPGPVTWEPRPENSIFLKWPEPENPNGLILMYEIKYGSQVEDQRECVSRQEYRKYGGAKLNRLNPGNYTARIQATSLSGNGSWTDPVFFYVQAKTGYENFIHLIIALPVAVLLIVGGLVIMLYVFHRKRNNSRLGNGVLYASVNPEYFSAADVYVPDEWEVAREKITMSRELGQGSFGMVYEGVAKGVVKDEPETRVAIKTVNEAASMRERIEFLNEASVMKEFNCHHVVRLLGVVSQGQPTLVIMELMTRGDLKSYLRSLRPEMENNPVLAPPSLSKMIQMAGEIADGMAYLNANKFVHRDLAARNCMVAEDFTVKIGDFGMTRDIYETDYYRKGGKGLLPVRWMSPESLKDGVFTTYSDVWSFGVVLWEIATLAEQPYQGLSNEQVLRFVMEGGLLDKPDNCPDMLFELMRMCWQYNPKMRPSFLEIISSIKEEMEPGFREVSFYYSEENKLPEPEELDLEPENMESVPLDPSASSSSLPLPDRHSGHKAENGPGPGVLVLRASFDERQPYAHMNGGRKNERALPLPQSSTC
Procedure, shortened: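 Mobility-shift readout of substrate conversion, normalised to positive (no compound) and negative (no kinase) controls, gives % inhibition and IC50 by four-parameter fit. Compounds, 3-fold dilutions over 10 concentrations starting at 3000 nM, preincubated 10 min with kinase before ATP/substrate start; room temperature.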

[2] = target: Ba/F3 cells with EGFR Δ19del/T790M/C797S mutation gene stably overexpressed (Homo sapiens, UniProt P00533, T790M/C797S, cells depend on it, form not given); assay: Ba/F3-Δ19del/T790M/C797S cell proliferation assay (CellTiter Glo, 72 hours); format: cell-based; conditions: Table 2, read-out: EGFR Δ19del/T790M/C797S IC50
Procedure, shortened: as §1

Sequence of Ba/F3-EGFR wild-type cell line (P00533 whole entry, stated change not applied): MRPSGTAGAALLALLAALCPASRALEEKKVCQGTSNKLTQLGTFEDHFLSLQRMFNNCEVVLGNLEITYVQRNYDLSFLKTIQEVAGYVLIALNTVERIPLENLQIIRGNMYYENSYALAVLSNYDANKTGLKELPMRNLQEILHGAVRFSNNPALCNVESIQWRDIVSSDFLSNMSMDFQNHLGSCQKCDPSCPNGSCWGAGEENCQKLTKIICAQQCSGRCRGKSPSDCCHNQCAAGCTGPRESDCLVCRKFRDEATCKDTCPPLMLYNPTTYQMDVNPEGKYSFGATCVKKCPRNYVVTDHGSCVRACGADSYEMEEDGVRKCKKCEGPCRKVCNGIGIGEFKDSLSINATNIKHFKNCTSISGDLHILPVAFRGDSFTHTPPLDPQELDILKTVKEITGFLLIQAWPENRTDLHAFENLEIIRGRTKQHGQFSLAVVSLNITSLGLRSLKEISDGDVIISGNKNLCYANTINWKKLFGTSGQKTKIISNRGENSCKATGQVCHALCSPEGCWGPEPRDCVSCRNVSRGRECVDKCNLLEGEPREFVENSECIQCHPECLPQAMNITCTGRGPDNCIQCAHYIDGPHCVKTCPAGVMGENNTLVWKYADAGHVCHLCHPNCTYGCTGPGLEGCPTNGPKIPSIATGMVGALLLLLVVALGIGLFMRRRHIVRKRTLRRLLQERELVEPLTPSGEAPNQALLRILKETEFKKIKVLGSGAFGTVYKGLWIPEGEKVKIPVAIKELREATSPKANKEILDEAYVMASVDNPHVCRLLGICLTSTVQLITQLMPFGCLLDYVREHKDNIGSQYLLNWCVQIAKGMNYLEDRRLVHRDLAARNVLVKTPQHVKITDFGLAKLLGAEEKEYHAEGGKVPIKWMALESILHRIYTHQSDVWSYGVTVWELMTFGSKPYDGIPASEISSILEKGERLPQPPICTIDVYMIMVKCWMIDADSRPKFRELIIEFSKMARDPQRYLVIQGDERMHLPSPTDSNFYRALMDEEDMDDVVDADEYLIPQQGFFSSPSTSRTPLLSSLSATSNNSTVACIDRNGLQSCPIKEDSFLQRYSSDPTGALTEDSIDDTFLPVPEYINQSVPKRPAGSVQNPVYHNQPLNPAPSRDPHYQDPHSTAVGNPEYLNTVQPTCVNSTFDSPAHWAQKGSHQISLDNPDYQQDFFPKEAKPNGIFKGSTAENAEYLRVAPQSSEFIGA

Row | Structure (SMILES) | GI50 [1] | IC50 (EGFRΔ19del/T790M/C797S) | IC50 (A431; Homo sapiens, A-431, 72 h) | IC50 (EGFR WT) | IC50 (IGF1R) | GI50 [2] | IC50 (A431)
1 | CCc1cc(Nc2ncc(Br)c(Nc3ccc(-c4cnn(C)c4)cc3P(C)(C)=O)n2)c(OC)cc1N1CCC(N(C)C)CC1 [Compound K-044, (2-((5-Bromo-2-((4-(4-(dimethylamino)piperidin-1-yl)-5-ethyl-2-methoxyphenyl)amino)pyrimidin-4-yl)amino)-5-(1-methyl-1H-pyrazol-4-yl)phenyl)dimethylphosphine oxide] | 166 nM | 0.3 nM | 280 nM | 8.2 nM | 38.2 nM | 3.8 nM | 
2 | CCc1cc(Nc2ncc(Br)c(Nc3ccc(-c4cnn(C)c4)c(C)c3P(C)(C)=O)n2)c(OC)cc1N1CCC(N2CCN(C)CC2)CC1 [Compound K-046, (6-((5-Bromo-2-((5-ethyl-2-methoxy-4-(4-(4-methylpiperazin-1-yl)piperidin-1-yl)phenyl)amino)pyrimidin-4-yl)amino)-2-methyl-3-(1-methyl-1H-pyrazol-4-yl)phenyl)dimethylphosphine oxide] | 34.8 nM | 0.5 nM | 306 nM | 9.9 nM | 28.7 nM | 7.6 nM | 
3 | CCc1cc(Nc2ncc(Br)c(Nc3ccc(-c4ccccc4)cc3P(C)(C)=O)n2)c(OC)cc1N1CCC(N2CCOCC2)CC1 [Compound K-047, (4-((5-Bromo-2-((5-ethyl-2-methoxy-4-(4-morpholinopiperidin-1-yl)phenyl)amino)pyrimidin-4-yl)amino)-[1,1′-biphenyl]-3-yl)dimethylphosphine oxide] | 95.6 nM | 0.8 nM | 12600 nM | 43 nM | 217 nM | 29.8 nM | 
4 | CCc1cc(Nc2ncc(Br)c(Nc3ccc(-c4ccccc4F)cc3P(C)(C)=O)n2)c(OC)cc1N1CCC(N2CCOCC2)CC1 [Compound K-048] | 156 nM | 1 nM | 23100 nM | 77.2 nM | 587 nM | 12.9 nM | 
5 | CCc1cc(Nc2ncc(Br)c(Nc3ccc(-c4ccccc4C)cc3P(C)(C)=O)n2)c(OC)cc1N1CCC(N2CCOCC2)CC1 [Compound K-049, (4-((5-Bromo-2-((5-ethyl-2-methoxy-4-(4-morpholinopiperidin-1-yl)phenyl)amino)pyrimidin-4-yl)amino)-2′-methyl-[1,1′-biphenyl]-3-yl)dimethylphosphine oxide] | 373 nM | 0.8 nM | 1470 nM | 31.7 nM | 432 nM | 38.4 nM | 
6 | CCc1cc(Nc2ncc(Br)c(Nc3ccc(-c4ccccc4)c(C)c3P(C)(C)=O)n2)c(OC)cc1N1CCC(N2CCN(C)CC2)CC1 [Compound K-050, (4-((5-Bromo-2-((5-ethyl-2-methoxy-4-(4-(4-methylpiperazin-1-yl)piperidin-1-yl)phenyl)amino)pyrimidin-4-yl)amino)-2-methyl-[1,1′-biphenyl]-3-yl)dimethylphosphine oxide] | 218 nM | 1.1 nM | 1030 nM | 12.3 nM | 121 nM | 20.6 nM | 
7 | CCc1cc(Nc2ncc(Br)c(Nc3ccc(-n4cc(OC)cn4)cc3P(C)(C)=O)n2)c(OC)cc1N1CCC(N2CCN(C)CC2)CC1 [Compound K-054, (2-((5-Bromo-2-((5-ethyl-2-methoxy-4-(4-(4-methylpiperazin-1-yl)piperidin-1-yl)phenyl)amino)pyrimidin-4-yl)amino)-5-(4-methoxy-1H-pyrazol-1-yl)phenyl)dimethylphosphine oxide] | 343 nM | 0.2 nM | 1510 nM | 32 nM | 268 nM | 19.1 nM | 
8 | CCc1cc(Nc2ncc(Br)c(Nc3ccc(-c4cnn(CC)n4)cc3P(C)(C)=O)n2)c(OC)cc1N1CCC(N2CCN(C)CC2)CC1 [Compound K-062, (2-((5-Bromo-2-((5-ethyl-2-methoxy-4-(4-(4-methylpiperazin-1-yl)piperidin-1-yl)phenyl)amino)pyrimidin-4-yl)amino)-5-(2-ethyl-2H-1,2,3-triazol-4-yl)phenyl)dimethylphosphine oxide] | 459 nM | 0.2 nM | 1800 nM | 18 nM | 126 nM | 23.9 nM | 
9 | CCc1cc(Nc2ncc(Br)c(Nc3ccc(-c4cc(C)n(C)n4)cc3P(C)(C)=O)n2)c(OC)cc1N1CCC(N2CCN(C)CC2)CC1 [Compound K-066] | 105 nM | 1.1 nM | 2300 nM | 13.9 nM | 134 nM | 10.6 nM | 
10 | CCc1cc(Nc2ncc(Br)c(Nc3ccc(-n4cc(C)cn4)cc3P(C)(C)=O)n2)c(OC)cc1N1CCC(N2CCN(C)CC2)CC1 [Compound K-069, (2-((5-Bromo-2-((5-ethyl-2-methoxy-4-(4-(4-methylpiperazin-1-yl)piperidin-1-yl)phenyl)amino)pyrimidin-4-yl)amino)-5-(4-methyl-1H-pyrazol-1-yl)phenyl)dimethylphosphine oxide] | 355 nM | 0.67 nM |  | 26.7 nM | 219 nM | 37.4 nM | 1610 nM
11 | CCc1cc(Nc2ncc(Br)c(Nc3ccc(-c4ccc(C)cn4)cc3P(C)(C)=O)n2)c(OC)cc1N1CCC(N2CCN(C)CC2)CC1 [Compound K-071, (2-((5-Bromo-2-((5-ethyl-2-methoxy-4-(4-(4-methylpiperazin-1-yl)piperidin-1-yl)phenyl)amino)pyrimidin-4-yl)amino)-5-(5-methylpyridin-2-yl)phenyl)dimethylphosphine oxide] | 218 nM | 0.3 nM |  | 29.4 nM | 180 nM | 21 nM | 2540 nM
12 | CCc1cc(Nc2ncc(Br)c(Nc3ccc(-c4ccc(OC)s4)cc3P(C)(C)=O)n2)c(OC)cc1N1CCC(N2CCN(C)CC2)CC1 [Compound K-072, (2-((5-Bromo-2-((5-ethyl-2-methoxy-4-(4-(4-methylpiperazin-1-yl)piperidin-1-yl)phenyl)amino)pyrimidin-4-yl)amino)-5-(5-methoxythiophen-2-yl)phenyl)dimethylphosphine oxide] | 446 nM | 0.96 nM | 1930 nM | 12 nM | 150 nM | 50.3 nM | 
13 | CCc1cc(Nc2ncc(Br)c(Nc3ccc(-c4nc(Cl)cs4)cc3P(C)(C)=O)n2)c(OC)cc1N1CCC(N2CCN(C)CC2)CC1 [Compound K-073, (2-((5-Bromo-2-((5-ethyl-2-methoxy-4-(4-(4-methylpiperazin-1-yl)piperidin-1-yl)phenyl)amino)pyrimidin-4-yl)amino)-5-(4-chlorothiazol-2-yl)phenyl)dimethylphosphine oxide] | 407 nM | 0.3 nM | 1510 nM | 22.2 nM | 127 nM | 27.7 nM | 
14 | CCc1cc(Nc2ncc(Br)c(Nc3ccc(-c4ccc(OC)cn4)cc3P(C)(C)=O)n2)c(OC)cc1N1CCC(N2CCN(C)CC2)CC1 [Compound K-074, (2-((5-Bromo-2-((5-ethyl-2-methoxy-4-(4-(4-methylpiperazin-1-yl)piperidin-1-yl)phenyl)amino)pyrimidin-4-yl)amino)-5-(5-methoxypyridin-2-yl)phenyl)dimethylphosphine oxide] | 267 nM | 0.4 nM | 2760 nM | 35.8 nM | 253 nM | 4.2 nM | 
15 | CCc1cc(Nc2ncc(Br)c(Nc3ccc(-c4nn(C)c5ncccc45)cc3P(C)(C)=O)n2)c(OC)cc1N1CCC(N(C)C)CC1 [Compound K-079, (2-((5-Bromo-2-((4-(4-(dimethylamino)piperidin-1-yl)-5-ethyl-2-methoxyphenyl)amino)pyrimidine-4-yl)amino)-5-(1-methyl-1H-pyrazolo[3,4-b]pyridin-3-yl)phenyl)dimethylphosphine oxide] | 432 nM | 0.5 nM | 7650 nM | 149 nM | 997 nM | 50.9 nM | 
16 | COc1cnn(-c2ccc(Nc3nc(Nc4cc(C)c(N5CCC(N6CCCCC6)CC5)cc4OC)ncc3Br)c(P(C)(C)=O)c2)c1 [Compound K-087] | 245 nM | 0.1 nM | 4820 nM | 17.2 nM | 96.1 nM | 7.4 nM | 
17 | COc1cnn(-c2ccc(Nc3nc(Nc4cc(C)c(N5CCN(C6CCN(C)CC6)CC5)cc4OC)ncc3Br)c(P(C)(C)=O)c2)c1 [Compound K-088] | 285 nM | 0.3 nM | > 10000 nM | 31 nM | 170 nM | 14.6 nM | 
